≈ marks a conversion by molar mass, not a printed value.
Assay: solubility of suspension in buffer
Format: physicochemical
Settings: aqueous buffer; in the buffer at 37° C. when implanted

solubility: ~19 µg/mL (≈ 43.7 µM)
SMILES: CC1(C)O[C@@H]2C[C@H]3[C@@H]4CCC5=CC(=O)C=C[C@]5(C)[C@@]4(F)[C@@H](O)C[C@]3(C)[C@]2(C(=O)CO)O1 [triamcinolone acetonide]
